pIC50: −log10 of the molar value.
System: 293T-HRE-GFP-luc cells
Test: Cell-based reporter assay for IC50 determinations (HRE-luciferase, hypoxia)
Conditions: 6 h, 6 hrs hypoxia (1% O2), luminescence
In short: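 IC50s come from four-parameter logistic fits of luminescence. Compounds in 1:3 DMSO series were added to 293T-HRE-GFP-luc cells, 30 min normoxia preceding 6 hrs at 1% O2, 37° C; HRE-luciferase signal was then measured with Steadylite Plus reagent.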

| Structure (SMILES) | pIC50 |
| --- | --- |
| CS(=O)(=O)CCCOc1cccc(Cn2cc(-c3noc(-c4ccc(S(=O)(=O)C(F)(F)F)cc4)n3)ccc2=O)c1 [Example 211, 1-{[3-(3-methanesulfonylpropoxy)phenyl]methyl}-5-[5-(4-trifluoromethanesulfonylphenyl)-1,2,4-oxadiazol-3-yl]-1,2-dihydropyridin-2-one] | > 7.00 |
| COCCOc1cccc(Cn2cc(-c3noc(-c4ccc(C5=CCOCC5)cc4)n3)ccc2=O)c1 [Example 212, 5-{5-[4-(3,6-dihydro-2H-pyran-4-yl)phenyl]-1,2,4-oxadiazol-3-yl}-1-{[3-(2-methoxyethoxy)phenyl]methyl}-1,2-dihydropyridin-2-one] | > 7.00 |
| CC(C)(O)c1cccc(Cn2cc(-c3noc(-c4ccc(S(=O)(=O)C(F)(F)F)cc4)n3)ccc2=O)c1 [Example 213, 1-{[3-(2-hydroxypropan-2-yl)phenyl]methyl}-5-[5-(4-trifluoromethanesulfonylphenyl)-1,2,4-oxadiazol-3-yl]-1,2-dihydropyridin-2-one] | > 7.00 |
| CC(C)(O)c1cccc(Cn2cc(-c3noc(-c4ccc(C5CCOCC5)cc4)n3)ccc2=O)c1 [Example 214, 1-{[3-(2-hydroxypropan-2-yl)phenyl]methyl}-5-{5-[4-(oxan-4-yl)phenyl]-1,2,4-oxadiazol-3-yl}-1,2-dihydropyridin-2-one] | > 7.00 |
| COCCOc1cccc(Cn2cc(-c3nc(-c4ccc(C5(O)CCOCC5)cc4)no3)ccc2=O)c1 [Example 215, 5-{3-[4-(4-hydroxyoxan-4-yl)phenyl]-1,2,4-oxadiazol-5-yl}-1-{[3-(2-methoxyethoxy)phenyl]methyl}-1,2-dihydropyridin-2-one] | 6.00 to 7.00 |
| COCCOc1cccc(Cn2cc(-c3noc(-c4ccc(S(=O)(=O)N(C)C)cc4)n3)ccc2=O)c1 [Example 216, 4-[3-(1-{[3-(2-methoxyethoxy)phenyl]methyl}-6-oxo-1,6-dihydropyridin-3-yl)-1,2,4-oxadiazol-5-yl]-N,N-dimethylbenzene-1-sulfonamide] | 6.00 to 7.00 |
| COCCOc1cccc(Cn2cc(-c3noc(-c4ccc(S(=O)(=O)NC(C)C)cc4)n3)ccc2=O)c1 [Example 217, 4-[3-(1-{[3-(2-methoxyethoxy)phenyl]methyl}-6-oxo-1,6-dihydropyridin-3-yl)-1,2,4-oxadiazol-5-yl}-N-(propan-2-yl)benzene-1-sulfonamide] | 6.00 to 7.00 |
| COCCOc1cccc(Cn2cc(-c3noc(-c4ccc(C(=O)N(C)C)cc4)n3)ccc2=O)c1 [Example 218, 4-[3-(1-{[3-(2-methoxyethoxy)phenyl]methyl}-6-oxo-1,6-dihydropyridin-3-yl)-1,2,4-oxadiazol-5-yl]-N,N-dimethylbenzamide] | 6.00 to 7.00 |
| COCCOc1cccc(Cn2cc(-c3noc(-c4ccc(C(=O)N5CCCC5)cc4)n3)ccc2=O)c1 [Example 219, 1-{[3-(2-methoxyethoxy)phenyl]methyl}-5-{5-[4-(pyrrolidine-1-carbonyl)phenyl]-1,2,4-oxadiazol-3-yl}-1,2-dihydropyridin-2-one] | 6.00 to 7.00 |
| COCCOc1cccc(Cn2cc(-c3noc(-c4ccc(CO)cc4)n3)ccc2=O)c1 [Example 220, 5-{5-[4-(hydroxymethyl)phenyl]-1,2,4-oxadiazol-3-yl}-1-{[3-(2-methoxyethoxy)phenyl]methyl}-1,2-dihydropyridin-2-one] | 6.00 to 7.00 |
| COCCOc1cccc(Cn2cc(-c3noc(-c4ccc(S(=O)(=O)C(F)F)cc4)n3)ccc2=O)c1 [Example 221, 5-[5-(4-difluoromethanesulfonylphenyl)-1,2,4-oxadiazol-3-yl]-1-{[3-(2-methoxyethoxy)phenyl]methyl}-1,2-dihydropyridin-2-one] | > 7.00 |
| COCCOc1cccc(Cn2cc(-c3noc(-c4ccc(C)c(C)c4)n3)ccc2=O)c1 [Example 222, 5-[5-(3,4-dimethylphenyl)-1,2,4-oxadiazol-3-yl]-1-{[3-(2-methoxyethoxy)phenyl]methyl}-1,2-dihydropyridin-2-one] | 6.00 to 7.00 |
| COCCOc1cccc(Cn2cc(-c3noc(-c4ccc5c(c4)OCO5)n3)ccc2=O)c1 [Example 223, 5-[5-(2H-1,3-benzodioxol-5-yl)-1,2,4-oxadiazol-3-yl]-1-{[3-(2-methoxyethoxy)phenyl]methyl}-1,2-dihydropyridin-2-one] | 6.00 to 7.00 |
| COCCOc1cccc(Cn2cc(-c3noc(-c4ccc5c(c4)OC(F)(F)O5)n3)ccc2=O)c1 [Example 224, 5-[5-(2,2-difluoro-2H-1,3-benzodioxol-5-yl)-1,2,4-oxadiazol-3-yl]-1-{[3-(2-methoxyethoxy)phenyl]methyl}-1,2-dihydropyridin-2-one] | > 7.00 |
| COCCOc1cccc(Cn2cc(-c3noc(-c4ccc5[nH]ccc5c4)n3)ccc2=O)c1 [Example 225, 5-[5-(1H-indol-5-yl)-1,2,4-oxadiazol-3-yl]-1-{[3-(2-methoxyethoxy)phenyl]methyl}-1,2-dihydropyridin-2-one] | 6.00 to 7.00 |
| COCCOc1cccc(Cn2cc(-c3noc(-c4ccc(NC(C)=O)cc4)n3)ccc2=O)c1 [Example 226, N-{4-[3-(1-{[3-(2-methoxyethoxy)phenyl]methyl}-6-oxo-1,6-dihydropyridin-3-yl)-1,2,4-oxadiazol-5-yl]phenyl}acetamide] | 6.00 to 7.00 |

| Structure (SMILES) | pIC50 |
| --- | --- |
| COCCOc1cccc(Cn2cc(-c3noc(-c4ccc(COC)cc4)n3)ccc2=O)c1 [Example 227, 1-{[3-(2-methoxyethoxy)phenyl]methyl}-5-{5-[4-(methoxymethyl)phenyl]-1,2,4-oxadiazol-3-yl}-1,2-dihydropyridin-2-one] | > 7.00 |
| COCCOc1cccc(Cn2cc(-c3noc(-c4ccc5c(c4)CCO5)n3)ccc2=O)c1 [Example 228, 5-[5-(2,3-dihydro-1-benzofuran-5-yl)-1,2,4-oxadiazol-3-yl]-1-{[3-(2-methoxyethoxy)phenyl]methyl}-1,2-dihydropyridin-2-one] | 6.00 to 7.00 |
| COCCOc1cccc(Cn2cc(-c3noc(-c4ccc(N5CCCC5)cc4)n3)ccc2=O)c1 [Example 229, 1-{[3-(2-methoxyethoxy)phenyl]methyl}-5-{5-[4-(pyrrolidin-1-yl)phenyl]-1,2,4-oxadiazol-3-yl}-1,2-dihydropyridin-2-one] | > 7.00 |
| COCCOc1cccc(Cn2cc(-c3noc(-c4ccc(C(C)(C)C)cc4)n3)ccc2=O)c1 [Example 230, 5-[5-(4-tert-butylphenyl)-1,2,4-oxadiazol-3-yl]-1-{[3-(2-methoxyethoxy)phenyl]methyl}-1,2-dihydropyridin-2-one] | 6.00 to 7.00 |
| COCCOc1cccc(Cn2cc(-c3noc(-c4cnc(OC)nc4)n3)ccc2=O)c1 [Example 231, 1-{[3-(2-methoxyethoxy)phenyl]methyl}-5-[5-(2-methoxypyrimidin-5-yl)-1,2,4-oxadiazol-3-yl]-1,2-dihydropyridin-2-one] | 6.00 to 7.00 |
| COCCOc1cccc(Cn2cc(-c3noc(-c4cnc(N(C)C)nc4)n3)ccc2=O)c1 [Example 232, 5-{5-[2-(dimethylamino)pyrimidin-5-yl]-1,2,4-oxadiazol-3-yl}-1-{[3-(2-methoxyethoxy)phenyl]methyl}-1,2-dihydropyridin-2-one] | > 7.00 |
| COCCOc1cccc(Cn2cc(-c3noc(-c4ccc(S(=O)(=O)CC(C)C)cc4)n3)ccc2=O)c1 [Example 233, 1-{[3-(2-methoxyethoxy)phenyl]methyl}-5-{5-[4-(2-methylpropanesulfonyl)phenyl]-1,2,4-oxadiazol-3-yl}-1,2-dihydropyridin-2-one] | > 7.00 |
| CCCNS(=O)(=O)c1ccc(-c2nc(-c3ccc(=O)n(Cc4cccc(OCCOC)c4)c3)no2)cc1 [Example 234, 4-[3-(1-{[3-(2-methoxyethoxy)phenyl]methyl}-6-oxo-1,6-dihydroylpyridin-3-yl)-1,2,4-oxadiazol-5-yl]-N-propylbenzene-1-sulfonamide] | 6.00 to 7.00 |
| COCCOc1cccc(Cn2cc(-c3noc(-c4ccc(S(=O)(=O)C(C)C)cc4)n3)ccc2=O)c1 [Example 235, 1-{[3-(2-methoxyethoxy)phenyl]methyl}-5-{5-[4-(propane-2-sulfonyl)phenyl]-1,2,4-oxadiazol-3-yl}-1,2-dihydropyridin-2-one] | 6.00 to 7.00 |
| COCCOc1cccc(Cn2cc(-c3noc(-c4ccc(CC(C)C)cc4)n3)ccc2=O)c1 [Example 236, 1-{[3-(2-methoxyethoxy)phenyl]methyl}-5-{5-[4-(2-methylpropyl)phenyl]-1,2,4-oxadiazol-3-yl}-1,2-dihydropyridin-2-one] | > 7.00 |
| COCCOc1cccc(Cn2cc(-c3noc(-c4ccc(S(=O)(=O)CCOC)cc4)n3)ccc2=O)c1 [Example 237, 5-{5-[4-(2-methoxyethanesulfonyl)phenyl]-1,2,4-oxadiazol-3-yl}-1-{[3-(2-methoxyethoxy)phenyl]methyl}-1,2-dihydropyridin-2-one] | 6.00 to 7.00 |
| COCCOc1cccc(Cn2cc(-c3noc(-c4cnc(N5CCCC5)nc4)n3)ccc2=O)c1 [Example 238, 1-{[3-(2-methoxyethoxy)phenyl]methyl}-5-{5-[2-(pyrrolidin-1-yl)pyrimidin-5-yl]-1,2,4-oxadiazol-3-yl}-1,2-dihydropyridin-2-one] | > 7.00 |
| COCCOc1cccc(Cn2cc(-c3noc(-c4cnc(OCCOC)nc4)n3)ccc2=O)c1 [Example 239, 1-{[3-(2-methoxyethoxy)phenyl]methyl}-5-{5-[2-(2-methoxyethoxy)pyrimidin-5-yl]-1,2,4-oxadiazol-3-yl}-1,2-dihydropyridin-2-one] | 6.00 to 7.00 |
| COCCOc1cccc(Cn2cc(-c3noc(-c4cnc(OCC(F)(F)F)nc4)n3)ccc2=O)c1 [Example 240, 1-{[3-(2-methoxyethoxy)phenyl]methyl}-5-{5-[2-(2,2,2-trifluoroethoxy)pyrimidin-5-yl]-1,2,4-oxadiazol-3-yl}-1,2-dihydropyridin-2-one] | > 7.00 |
| COCCOc1cccc(Cn2cc(-c3noc(-c4cnc(OC(C)C)nc4)n3)ccc2=O)c1 [Example 241, 1-{[3-(2-methoxyethoxy)phenyl]methyl}-5-{5-[2-(propan-2-yloxy)pyrimidin-5-yl]-1,2,4-oxadiazol-3-yl}-1,2-dihydropyridin-2-one] | > 7.00 |
